Experimental data taken from patent US20040142960A1 (priority 2001, published 2004).
Counter-ions that a name gives are not always drawn.

How the values were obtained:
bone marrow cells = details: concentrations at which the adrenergic antagonists are effective; cited from earlier work
HSV-1 [1] = details: cited from earlier work
Langerhans cells = details: administered intraperitoneally; cited from earlier work
[2] = antibody response in treated subjects; assay type: in vivo
HSV-1 [3] = assay: systemic or local treatment, HSV-1 reactivation from latency; assay type: in vivo

Cc1ccc(N(CC2=NCCN2)c2cccc(O)c2)cc1 [phentolamine]
relative order of potency in counteracting norepinephrine (bone marrow cells): prazosin>phentolamine>yohimbine

COc1cc2nc(N3CCN(C(=O)c4ccco4)CC3)nc(N)c2cc1OC [prazosin]
relative order of potency in counteracting norepinephrine (bone marrow cells): prazosin>phentolamine>yohimbine

COC(=O)[C@@H]1[C@H]2C[C@H]3c4[nH]c5ccccc5c4CCN3C[C@@H]2CC[C@@H]1O [yohimbine hydrochloride]
activity on HSV-1 (HSV-1 [1]): inactive

COC(=O)[C@@H]1[C@H]2C[C@H]3c4[nH]c5ccccc5c4CCN3C[C@@H]2CC[C@@H]1O [yohimbine, (16α,17α)-hydroxyyohimban-16-carboxylic acid methyl ester]
Langerhans cells migration (Langerhans cells): enhances the Langheran's cells migration
antibody response [2]: stimulates and enhances the antibody response
inflammation during HSV-1 reactivation (HSV-1 [3]; in vivo): reduced inflammation
HSV-1 reactivation frequency (HSV-1 [3]; systemic or local treatment): reduces the HSV-1 reactivation frequency
local norepinephrine concentration (HSV-1 [3]; systemic or local treatment): local increase of norepinephrine concentration
